Data from patent US11564923B2, “Compounds and pharmaceutical compositions thereof for the treatment of inflammatory disorders” (Galapagos NV, priority 2017, dated 2023).
pIC50: −log10 of the molar value.

Key:
[1] = tested on: IFNα activation of STAT1 in PBMC; experiment: IFNα activation of STAT1 in PBMC; type: cell-based; details: Homo sapiens; IFNα activation of STAT1 in PBMC; average IC50; read-out: IFNα signaling inhibitory potency IC50
Procedure: After these 2 wash steps the cell pellet is dissolved in ammonium chloride buffer (1.5 M NH4Cl, 100 mM NaHCO3 and 10 mM Na2.EDTA) for lysis of the red blood cells.
PBMC are treated with test compound for 30 min at 37° C. 5% CO2. […] After 30 min of test compound/vehicle pre-treatment, PBMC are stimulated for 30 min at 37° C. 5% CO2 with recombinant human IFNα (PeproTech, catalog number 300-02A) at a final concentration of 5 ng/mL by addition of 20 μL (10× concentrated) cytokine trigger to obtain a final volume of 200 μL per well.
After 30 min of cytokine stimulation, 200 μL of cell suspension is transferred to a 96-well V-bottom plate, centrifugated for 5 min at 1000 rpm to pellet cells, followed by removal of supernatant.
(§1) The percentage inhibition is calculated as: […]
RCLU(vehicle control): Relative Chemiluminescent signal determined in presence of vehicle and trigger
RCLU(test compound): Relative Chemiluminescent signal determined in presence of test compounds and trigger
RCLU(positive control): Relative Chemiluminescent signal determined in presence of positive control and trigger
PIN values are plotted for compounds tested in dose-response and average IC50 values are derived using GraphiPad Prism Software applying non-linear regression (sigmoidal) curve fitting.

[2] = tested on: IL-12 activation of STAT4 in NK-92 cells; experiment: IL-12 activation of STAT4 in NK-92 cells using AphaLISA SureFire technology; type: cell-based; details: Homo sapiens, NK92; IL-12 activation of STAT4 in NK-92 cells, AlphaLISA SureFire; average IC50; read-out: IL12 pSTAT4 IC50
Procedure: IL-2 is added freshly to the medium with each medium refreshment step. Cells are cultured in a humidified incubator at 37° C. 5% CO2.
A subcultured fraction of NK-92 cells is washed once in culture medium without rhIL-2 the day before the experiment and incubated overnight in a culture flask.
5% CO2. […] NK-92 cells are triggered with rhIL-12 for 30 min at 37° C. 5% CO2.
After 30 min of cytokine stimulation the cells are lysed by addition of 15 μL 5× lysis buffer (supplemented with the AlphaLISA kit). After 10 minutes, plates are frozen at −80° C. overnight and the next day the levels of phospho-STAT4 are quantified using the AlphaLISA SureFire ULTRA p-STAT4 (Tyr693) (Perkin Elmer, Catalogue number ALSU-PST4-A10K) according to the manufacturers instructions. AlphaLISA signal (relative light units) is measured using an Envision (Perkin Elmer).
as §1
RLU(trigger/veh): Relative lumescent signal determined in presence of vehicle and trigger
RLU(test compound): Relative luminescent signal determined in presence of test compounds and trigger
PIN values are plotted for compounds tested in dose-response and IC50 values are derived using GraphPad Prism Software applying non-linear regression (sigmoidal) curve fitting. The data are expressed as the average IC50 from different experiments.

[3] = target: T1, Recombinant human TYK2 catalytic domain (amino acids 871-1187) (Homo sapiens, UniProt P29597); experiment: TYK2 radioactive assay polyGT substrate; type: biochemical; also: 0.1 µM ATP
T1 construct: catalytic domain (amino acids 871-1187)
T1 sequence (P29597 871-1187): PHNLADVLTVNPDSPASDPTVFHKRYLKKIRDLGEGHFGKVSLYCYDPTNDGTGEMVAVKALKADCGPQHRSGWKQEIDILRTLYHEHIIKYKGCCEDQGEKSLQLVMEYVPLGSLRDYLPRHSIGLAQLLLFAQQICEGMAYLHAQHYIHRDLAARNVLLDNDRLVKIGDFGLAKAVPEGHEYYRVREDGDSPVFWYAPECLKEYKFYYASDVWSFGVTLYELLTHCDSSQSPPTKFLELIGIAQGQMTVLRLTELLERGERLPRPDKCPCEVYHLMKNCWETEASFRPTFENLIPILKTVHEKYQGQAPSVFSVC
Procedure: After 120 min at 30° C., reactions were stopped by adding 25 μL/well of 150 mM phosphoric acid. […] Plates were washed 6 times with 300 μL per well of a 75 mM phosphoric acid solution and the bottom of the plates is sealed. […] Kinase activity is calculated by subtracting counts per min (cpm) obtained in the presence of a positive control inhibitor (10 μM staurosporine) from cpm obtained in the presence of vehicle. The ability of a test compound to inhibit this activity (or percentage inhibition) is determined as: […]
cpm test compound=cpm determined for sample with test compound present cpm control=cpm determined for sample with positive control inhibitor cpm vehicle=cpm determined in the presence of vehicle
Dose dilution series were prepared for the compounds enabling the testing of dose-response effects in the TYK2 assay and the calculation of the IC50 for each compound. Each compound is routinely tested at concentration of 20 μM followed by a 1/5 serial dilution, 10 points in a final concentration of 1% DMSO.

| Structure (SMILES) | pIC50 [1] | pIC50 [2] | pIC50 [3] |
| --- | --- | --- | --- |
| Cc1cc(C#N)ncc1Oc1cc(Nc2ccc(C(=O)N3C[C@@H](C)O[C@H](C)C3)cn2)c2ncn(C)c2n1 (racemic) [Compound 149, 4-methyl-5-[3-methyl-7-[[5-[rac-(2R,6R)-2,6-dimethylmorpholine-4-carbonyl]pyridin-2-yl]amino]imidazo[4,5-b]pyridin-5-yl]oxypyridine-2-carbonitrile] | 6.66 | 6.46 | 8.44 |
| CCc1cc(C#N)ncc1Oc1cc(Nc2ccc(C(=O)N3CCOCC3)cn2)c2ncn(C)c2n1 [Compound 7, 4-Ethyl-5-{3-methyl-7-[5-(morpholine-4-carbonyl)-pyridin-2-ylamino]-3H-imidazo[4,5-b]pyridin-5-yloxy}-pyridine-2-carbonitrile] | 7.31 | 6.88 | 9.23 |
| Cc1cc(C#N)ncc1Oc1cc(Nc2ccc(N3CC(CN(C)C)C3)nn2)c2ncn(C)c2n1 [Compound 40, 5-{7-[6-(3-Dimethylaminomethyl-azetidin-1-yl)-pyridazin-3-ylamino]-3-methyl-3H-imidazo[4,5-b]pyridin-5-yloxy}-4-methyl-pyridine-2-carbonitrile] | 6.94 | 5.45 | 8.01 |
| Cc1cc(C#N)ncc1Oc1cc(Nc2ccc(N3C[C@@H](C)O[C@@H](C)C3)nn2)c2ncn(C)c2n1 [Compound 43, (±)-5-{7-[6-((2R,6S)-2,6-Dimethyl-morpholin-4-yl)-pyridazin-3-ylamino]-3-methyl-3H-imidazo[4,5-b]pyridin-5-yloxy}-4-methyl-pyridine-2-carbonitrile] | 7.15 | 7.31 | 8.80 |
| Cc1cc(C#N)ncc1Oc1cc(Nc2ccc(N3CCO[C@@H](C)C3)nn2)c2ncn(C)c2n1 [Compound 44, 4-Methyl-5-{3-methyl-7-[6-((S)-2-methyl-morpholin-4-yl)-pyridazin-3-ylamino]-3H-imidazo[4,5-b]pyridin-5-yloxy}-pyridine-2-carbonitrile] | 7.10 | 7.30 | 8.71 |
| Cc1cc(C#N)ncc1Oc1cc(Nc2ccc(C(=O)N3CCN(C(C)C)CC3)cn2)c2ncn(C)c2n1 [Compound 46, 4-methyl-5-[3-methyl-7-[[5-(4-propan-2-ylpiperazine-1-carbonyl)pyridin-2-yl]amino]imidazo[4,5-b]pyridin-5-yl]oxypyridine-2-carbonitrile] | 7.12 | 6.68 | 8.83 |
| Cc1cc(C#N)ncc1Oc1cc(Nc2ccc(C(=O)N3CCN(C4CCC4)CC3)cn2)c2ncn(C)c2n1 [Compound 47, 5-[7-[[5-(4-cyclobutylpiperazine-1-carbonyl)pyridin-2-yl]amino]-3-methylimidazo[4,5-b]pyridin-5-yl]oxy-4-methylpyridine-2-carbonitrile] | 7.28 | 7.08 | 8.69 |
| Cc1cc(C#N)ncc1Oc1cc(Nc2ccc(N3CCN(C)CC3)cn2)c2ncn(C)c2n1 [Compound 50, 4-methyl-5-[3-methyl-7-[[5-(4-methylpiperazin-1-yl)pyridin-2-yl]amino]imidazo[4,5-b]pyridin-5-yl]oxypyridine-2-carbonitrile] | 7.02 | 6.61 | 8.26 |
| Cc1cc(C#N)ncc1Oc1cc(Nc2ccc(C(=O)N3CC(O)(C4CC4)C3)cn2)c2ncn(C)c2n1 [Compound 113, 5-[7-[[5-(3-cyclopropyl-3-hydroxy-azetidine-1-carbonyl)-2-pyridyl]amino]-3-methyl-imidazo[4,5-b]pyridin-5-yl]oxy-4-methyl-pyridine-2-carbonitrile] | – | 6.72 | 8.69 |
| Cc1cc(C#N)ncc1Oc1cc(Nc2ccc(C(=O)N(C)CCO)cn2)c2ncn(C)c2n1 [Compound 136, 6-[[5-(6-cyano-4-methylpyridin-3-yl)oxy-3-methylimidazo[4,5-b]pyridin-7-yl]amino]-N-(2-hydroxyethyl)-N-methylpyridine-3-carboxamide] | – | – | 8.56 |
| Cc1cc(C#N)ncc1Oc1cc(Nc2ccc(N3CC(N(C)C)C3)nn2)c2ncn(C)c2n1 [Compound 143, 5-[7-[[6-[3-(dimethylamino)azetidin-1-yl]pyridazin-3-yl]amino]-3-methylimidazo[4,5-b]pyridin-5-yl]oxy-4-methylpyridine-2-carbonitrile] | – | – | 8.34 |
| Cc1cc(C#N)ncc1Oc1cc(Nc2ccc(C(=O)N3CCOC[C@H]3C)cn2)c2ncn(C)c2n1 [Compound 146, 4-methyl-5-[3-methyl-7-[[5-[(3R)-3-methylmorpholine-4-carbonyl]pyridin-2-yl]amino]imidazo[4,5-b]pyridin-5-yl]oxypyridine-2-carbonitrile] | 6.91 | – | 8.94 |
| Cc1cc(C#N)ncc1Oc1cc(Nc2ccc(N3C[C@H]4C[C@@H]3CN4C)nn2)c2ncn(C)c2n1 [Compound 152, 4-methyl-5-[3-methyl-7-[[6-[(1R,4R)-5-methyl-2,5-diazabicyclo[2.2.1]heptan-2-yl]pyridazin-3-yl]amino]imidazo[4,5-b]pyridin-5-yl]oxypyridine-2-carbonitrile] | – | – | 7.90 |
| Cc1cc(C#N)ncc1Oc1cc(Nc2ccc(C(=O)N3CCOC(C(F)(F)F)C3)cn2)c2ncn(C)c2n1 (stereo not shown) [Compound 155, 4-methyl-5-[3-methyl-7-[[5-[2-(trifluoromethyl)morpholine-4-carbonyl]pyridin-2-yl]amino]imidazo[4,5-b]pyridin-5-yl]oxypyridine-2-carbonitrile] | – | – | 8.69 |
| Cc1cc(C#N)ncc1Oc1cc(Nc2ccc(C(=O)N3CCOC(C4CC4)C3)cn2)c2ncn(C)c2n1 (stereo not shown) [Compound 156, 5-[7-[[5-(2-cyclopropylmorpholine-4-carbonyl)pyridin-2-yl]amino]-3-methylimidazo[4,5-b]pyridin-5-yl]oxy-4-methylpyridine-2-carbonitrile] | – | – | 8.76 |
| Cc1cc(C#N)ncc1Oc1cc(Nc2ccc(C(=O)N3CCOC[C@H]3C(C)C)cn2)c2ncn(C)c2n1 [Compound 157, 4-methyl-5-[3-methyl-7-[[5-[(3R)-3-propan-2-ylmorpholine-4-carbonyl]pyridin-2-yl]amino]imidazo[4,5-b]pyridin-5-yl]oxypyridine-2-carbonitrile] | – | – | 9.01 |
| Cc1cc(C#N)ncc1Oc1cc(Nc2ccc(C(=O)N3CCOCC3C3CC3)cn2)c2ncn(C)c2n1 (stereo not shown) [Compound 159, 5-[7-[[5-(3-cyclopropylmorpholine-4-carbonyl)pyridin-2-yl]amino]-3-methylimidazo[4,5-b]pyridin-5-yl]oxy-4-methylpyridine-2-carbonitrile] | – | – | 8.99 |
| Cc1cc(C#N)ncc1Oc1cc(Nc2ccc(C(=O)N3CCOC(C#N)C3)cn2)c2ncn(C)c2n1 (stereo not shown) [Compound 160, 4-[6-[[5-(6-cyano-4-methylpyridin-3-yl)oxy-3-methylimidazo[4,5-b]pyridin-7-yl]amino]pyridine-3-carbonyl]morpholine-2-carbonitrile] | – | – | 8.86 |
| Cc1cc(C#N)ncc1Oc1cc(Nc2ccc(C(=O)N3CCOCC3C#N)cn2)c2ncn(C)c2n1 (stereo not shown) [Compound 162, 4-[6-[[5-(6-cyano-4-methylpyridin-3-yl)oxy-3-methylimidazo[4,5-b]pyridin-7-yl]amino]pyridine-3-carbonyl]morpholine-3-carbonitrile] | – | – | 8.69 |
